Laboratory results published in patent EP4603105A1, “PHARMACEUTICAL COMPOSITION CONTAINING CYCLIC COMPOUND HAVING SELECTIVE KRAS INHIBITORY EFFECT AGAINST HRAS AND NRAS” (CHUGAI SEIYAKU KABUSHIKI KAISHA, priority 2022, dated 2024).
*1 amine or outer side, *2 acyl side, *3 side chain or, on linkers, in order; H or OH if unused. Where a SMILES comes first, the peptide text is derived from it. Bridges are numbered along the chain shown (N, C = ends). [ ]: non-standard residue; d: D form. The star is where a group is joined. X6 = CC(C)(C)CCN([C@@H](Cc1ccc(C(F)(F)F)cc1)C(=O)[*:2])[*:1]; hPhe(3-Cl-4-CF3) = N[C@@H](CCc1ccc(C(F)(F)F)c(Cl)c1)C(=O)O; X5 = Cc1ccc(C[C@@H](C(=O)[*:2])N(CCC(C)(C)C)[*:1])cc1; NMeGly(cPent) = CN[C@H](C(=O)O)C1CCCC1; NMeD = CN[C@@H](CC(=O)O)C(=O)O; NMeL = CN[C@@H](CC(C)C)C(=O)O; Morpholide = C1CN(*)CCO1; NMeA = CN[C@@H](C)C(=O)O; Ac5c = NC1(C(=O)O)CCCC1; Aze = O=C(O)[C@@H]1CCN1; Sar = CNCC(=O)O

How the values were obtained:
[1] = molecular target: GDP-bound KRAS wild-type protein (Homo sapiens, UniProt P01116); experiment: Binding to KRAS by surface plasmon resonance (SPR), dissociation constant KD
GDP-bound KRAS wild-type protein, sequence (P01116 1-188 isoform P01116-2): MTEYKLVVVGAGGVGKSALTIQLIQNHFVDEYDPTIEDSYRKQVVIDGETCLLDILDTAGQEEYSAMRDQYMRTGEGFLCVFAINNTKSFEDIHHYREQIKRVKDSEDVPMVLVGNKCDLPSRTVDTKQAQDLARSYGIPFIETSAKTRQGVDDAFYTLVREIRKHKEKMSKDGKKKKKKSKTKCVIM
Procedure, shortened: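 Read-out is KD from 1:1 fitting of single-cycle kinetics sensorgrams, blank-cycle and reference-surface corrected. Proteins were GDP-loaded, biotinylated Avi-fusions freshly captured each cycle at roughly 100–300 RU. Runs were at 30°C in HBS pH 7.4 with MgCl2, GDP and 4% DMSO.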

[2] = molecular target: GDP-bound NRAS wild-type protein (Homo sapiens, UniProt P01111); experiment: Binding to NRAS by surface plasmon resonance (SPR), KD and KD ratio to KRAS
GDP-bound NRAS wild-type protein, sequence (P01111 whole entry): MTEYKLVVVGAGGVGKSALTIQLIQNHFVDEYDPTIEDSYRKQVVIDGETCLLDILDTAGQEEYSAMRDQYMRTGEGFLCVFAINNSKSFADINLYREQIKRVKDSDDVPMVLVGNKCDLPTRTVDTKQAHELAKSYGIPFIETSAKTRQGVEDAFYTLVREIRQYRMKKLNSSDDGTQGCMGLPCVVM
Procedure, shortened: (§1)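 Captured GDP-RAS (~100–300 RU) was exposed to increasing compound concentrations, 75 s per step, in running buffer with 10 µM GDP, 10 mM MgCl2 and 4% DMSO at pH 7.4.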

[3] = molecular target: HRAS wild-type protein (Homo sapiens, UniProt P01112); experiment: Binding to HRAS by surface plasmon resonance (SPR), KD and KD ratio to KRAS
HRAS wild-type protein, sequence (P01112 whole entry): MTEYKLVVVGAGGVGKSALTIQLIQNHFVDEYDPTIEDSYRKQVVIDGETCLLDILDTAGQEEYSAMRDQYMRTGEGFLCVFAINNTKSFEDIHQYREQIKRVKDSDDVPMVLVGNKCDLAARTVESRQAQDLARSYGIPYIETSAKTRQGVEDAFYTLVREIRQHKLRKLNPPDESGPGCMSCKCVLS
Procedure, shortened: as §1

[4] = system: human lung cancer strain NCI-H441; type: cell-based
Procedure, shortened: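 Step one: dispense the test compound in serial DMSO dilutions. Step three: add the reagent and measure […].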

[5] = ratio of KD for GDP-bound NRAS wild-type protein to KD for KRAS
[6] = ratio of KD for HRAS wild-type protein to KD for KRAS
[7] = Single Cycle Kinetics, 1:1 binding model
[8] = ratio of the KD value with respect to GDP-bound NRAS wild-type protein to the KD value with respect to KRAS
[9] = ratio of the KD value with respect to HRAS wild-type protein to the KD value with respect to KRAS

SMILES | Kd ([1]; 1:1 binding model) [nM] | NRAS /KRAS [2, 5] | HRAS /KRAS [3, 6] | IC50 [4] [nM] | Kd [1, 7] [nM] | NRAS /KRAS [2, 8] | HRAS /KRAS [3, 9] | NRAS /KRAS ([2]; ratio of KD value for GDP-bound NRAS wild-type protein to KD value for KRAS (SPR)) | HRAS /KRAS ([3]; ratio of KD value for HRAS wild-type protein to KD value for KRAS (SPR)) | Kd ([1]; Single Cycle Kinetics) [nM]
CCC[C@H]1C(=O)N[C@@H]([C@@H](C)CC)C(=O)N(C)CC(=O)N(C)[C@H]2C/C=C\CCN(C2=O)[C@@H](Cc2ccc(C)cc2)C(=O)N(C)CC(=O)N[C@@H](CCc2ccc(CC)c(Cl)c2)C(=O)N2C[C@H](OCC)C[C@H]2C(=O)NC2(CC(C)(C)C2)C(=O)N(C)[C@@H](C(CC)CC)C(=O)N(C)[C@H](C(=O)N(C)C)CC(=O)N1C [PP2779] | 3.4 | A (a compound having 10 or more and less than 20 is denoted as A) | A (a compound having 10 or more and less than 20 is denoted as A) | 112 |  |  |  |  |  | 
CCO[C@@H]1C[C@H]2C(=O)NC3(CC(C)(C)C3)C(=O)N(C)[C@@H](C3CCCC3)C(=O)N(C)[C@H](C(=O)N(C)C)CC(=O)N(C)[C@@H]([C@@H](C)OC)C(=O)N[C@@H]([C@@H](C)CC)C(=O)N(C3CC3)CC(=O)N(C)[C@H]3C/C=C\CCN(C3=O)[C@@H](Cc3ccc(C)cc3)C(=O)N(C)CC(=O)N[C@@H](CCc3ccc(C(F)(F)F)c(OC)c3)C(=O)N2C1 [PP3210] | 0.53 | A (a compound having 10 or more and less than 20 is denoted as A) | B (a compound having 3 or more and less than 10 is denoted as B) | 19.1 |  |  |  |  |  | 
CCO[C@@H]1C[C@H]2C(=O)NC3(CC(C)(C)C3)C(=O)N(C)[C@@H](C3CCCC3)C(=O)N(C)[C@H](C(=O)N(C)C)CC(=O)N(C)[C@@H](CC3CC3)C(=O)N[C@@H]([C@@H](C)CC)C(=O)N(C)CC(=O)N(C)[C@H]3C/C=C\CCN(C3=O)[C@@H](Cc3ccc(C)cc3)C(=O)N(C)CC(=O)N[C@@H](CCc3ccc(C(F)(F)F)c(OC)c3)C(=O)N2C1 [PP1903] |  |  |  | 5.5 | 0.063 | A (a compound having 10 or more and less than 20 is denoted as A) | B (a compound having 3 or more and less than 10 is denoted as B) |  |  | 
CCC[C@H]1C(=O)N[C@@H](C2CCCCC2)C(=O)N(C)CC(=O)N(C)[C@H]2C/C=C\CCN(C2=O)[C@@H](Cc2ccc(C)cc2)C(=O)N(C)CC(=O)N[C@@H](CCc2ccc(C(F)(F)F)c(Cl)c2)C(=O)N2C[C@H](OCC)C[C@H]2C(=O)NC2(CC(C)(C)C2)C(=O)N(C)[C@@H](CC(C)(C)C)C(=O)N(C)[C@H](C(=O)N(C)C)CC(=O)N1C [PP3018] | 0.32 | A (a compound having 10 or more and less than 20 is denoted as A) | B (a compound having 3 or more and less than 10 is denoted as B) | 19.1 |  |  |  |  |  | 
CC[C@H](C)[C@@H]1NC(=O)[C@@H](CC(C)C)N(C)C(=O)C[C@@H](C(=O)N2CCOCC2)N(C)C(=O)[C@H](C2CCCC2)N(C)C(=O)C2(CCCC2)NC(=O)[C@@H]2CCCN2C(=O)[C@H](CCc2cc(F)c(C(F)(F)F)c(F)c2)NC(=O)CN(C)C(=O)[C@H](Cc2ccc(C(F)(F)F)cc2)N2CCCC[C@@H](C2=O)N(C)C(=O)CN(C)C1=O [PP0591] |  |  |  | 3890 | 87 | B (a compound having 3 or more and less than 10 is denoted as B) | B (a compound having 3 or more and less than 10 is denoted as B) |  |  | 
CC[C@H](C)[C@@H]1NC(=O)[C@H](COC)N(C)C(=O)C[C@@H](C(=O)N(C)C)N(C)C(=O)[C@H](C2CCCC2)N(C)C(=O)C2(CC(C)(C)C2)NC(=O)CNC(=O)[C@H](CCc2ccc(C(F)(F)F)c(Cl)c2)NC(=O)CN(C)C(=O)[C@H](Cc2ccc(C(F)(F)F)cc2)N2CC/C=C\C[C@@H](C2=O)N(C)C(=O)CN(C)C1=O [PP3134] | 0.33 | AA (a compound having 20 or more is denoted as AA) | A (a compound having 10 or more and less than 20 is denoted as A) | 812 |  |  |  |  |  | 
CCCOC[C@H]1C(=O)N[C@@H]([C@@H](C)CC)C(=O)N(C)CC(=O)N(C)[C@H]2C/C=C\CCN(C2=O)[C@@H](Cc2ccc(C)cc2)C(=O)N(C)CC(=O)N[C@@H](CCc2cc(F)c(C(F)(F)F)c(F)c2)C(=O)N2C[C@H](OCC)C[C@H]2C(=O)NC2(CC(C)(C)C2)C(=O)N(C)[C@@H](C2CCCC2)C(=O)N(C)[C@H](C(=O)N(CC)CC)CC(=O)N1C [PP1578] |  |  |  | 12.6 | 0.2 |  |  | A (a compound having 10 or more and less than 20 is denoted as A) | A (a compound having 10 or more and less than 20 is denoted as A) | 
CCC[C@@H]1C[C@H]2C(=O)NC3(CCCC3)C(=O)N(C)[C@@H](C3CCCC3)C(=O)N(C)[C@H](C(=O)N(C)C)CC(=O)N(C)[C@@H](CC(C)C)C(=O)N[C@@H]([C@@H](C)CC)C(=O)N(C)CC(=O)N(C)[C@H]3C/C=C\CCN(C3=O)[C@@H](Cc3ccc(C)cc3)C(=O)N(C)CC(=O)N[C@@H](CCc3cc(F)c(C(F)(F)F)c(F)c3)C(=O)N2C1 [PP2193] |  |  |  | 33.1 | 0.41 | A (a compound having 10 or more and less than 20 is denoted as A) | A (a compound having 10 or more and less than 20 is denoted as A) |  |  | 
CC[C@H](C)[C@@H]1NC(=O)[C@H](CC(C)C)N(C)C(=O)C[C@@H](C(=O)N2CCOCC2)N(C)C(=O)[C@H](C2CCCC2)N(C)C(=O)C2(CCCC2)NC(=O)[C@@H]2CCCN2C(=O)[C@H](CCc2ccc(C(F)(F)F)c(Cl)c2)NC(=O)CN(C)C(=O)[C@H](Cc2ccc(C)cc2)N(CCC(C)(C)C)C(=O)[C@@H]2CCN2C(=O)[C@H](C)N(C)C1=O [PP0087] ([NMeL]I[NMeA][Aze][X5][Sar][hPhe(3-Cl-4-CF3)]P[Ac5c][NMeGly(cPent)][NMeD]-Morpholide; lactam N-11) | 0.75 | C (A compound having a KD ratio of 0.1 or more and less than 3 is denoted as C) | C (A compound having a KD ratio of 0.1 or more and less than 3 is denoted as C) | 24 |  |  |  |  |  | 
CCO[C@@H]1C[C@H]2C(=O)NC3(CCC3)C(=O)N(C)[C@@H](C3CCCC3)C(=O)N(C)[C@H](C(=O)N(C)C)CC(=O)N(C)[C@@H](CC)C(=O)N[C@@H]([C@@H](C)CC)C(=O)N(C)CC(=O)N(C)[C@H]3CCCCCN(C3=O)[C@@H](Cc3ccc(F)cc3Cl)C(=O)N(C)CC(=O)N[C@@H](CCc3cc(F)c(C(F)(F)F)c(F)c3)C(=O)N2C1 [PP0908] |  | B (a compound having 3 or more and less than 10 is denoted as B) | B (a compound having 3 or more and less than 10 is denoted as B) | 38.5 |  |  |  |  |  | 0.19
CC[C@H](C)[C@@H]1NC(=O)[C@H](CC(C)C)N(C)C(=O)C[C@@H](C(=O)N2CCOCC2)N(C)C(=O)[C@H](C2CCCC2)N(C)C(=O)C2(CCCC2)NC(=O)[C@@H]2CCCN2C(=O)[C@H](CCc2ccc(C(F)(F)F)c(Cl)c2)NC(=O)CN(C)C(=O)[C@H](Cc2ccc(C(F)(F)F)cc2)N(CCC(C)(C)C)C(=O)[C@@H]2CCN2C(=O)[C@H](C)N(C)C1=O [PP0113] ([NMeL]I[NMeA][Aze][X6][Sar][hPhe(3-Cl-4-CF3)]P[Ac5c][NMeGly(cPent)][NMeD]-Morpholide; lactam N-11) | 0.75 | C (A compound having a KD ratio of 0.1 or more and less than 3 is denoted as C) | B (a compound having 3 or more and less than 10 is denoted as B) | 7.1 |  |  |  |  |  | 
CCOC[C@H]1C(=O)N[C@@H]([C@@H](C)CC)C(=O)N(C2CC2)CC(=O)N(C)[C@H]2C/C=C\CCN(C2=O)[C@@H](CC2CCC(F)(F)CC2)C(=O)N(C)CC(=O)N[C@@H](CCc2ccc(C(F)(F)F)c(OC)c2)C(=O)N2C[C@H](OCC)C[C@H]2C(=O)N(C)C2(CCC2)C(=O)N(C)[C@@H](C(CC)CC)C(=O)N(C)[C@H](C(=O)N(C)C)CC(=O)N1C [PP2351] |  |  |  | 177 | 3.2 | A (a compound having 10 or more and less than 20 is denoted as A) | A (a compound having 10 or more and less than 20 is denoted as A) |  |  | 
CCO[C@@H]1C[C@H]2C(=O)NC3(CC(C)(C)C3)C(=O)N(C)[C@@H](C3CCCC3)C(=O)N(C)[C@H](C(=O)N(C)CC)CC(=O)N(C)[C@@H]([C@@H](C)OC)C(=O)N[C@@H]([C@@H](C)CC)C(=O)N(C)CC(=O)N(C)[C@H]3C/C=C\CCN(C3=O)[C@@H](Cc3ccc(C)cc3)C(=O)N(C)CC(=O)N[C@@H](CCc3ccc(C(F)(F)F)c(Cl)c3)C(=O)N2C1 [PP3180] | 0.37 | B (a compound having 3 or more and less than 10 is denoted as B) | B (a compound having 3 or more and less than 10 is denoted as B) | 13.3 |  |  |  |  |  | 
CC[C@@H]1C[C@H]2C(=O)NC3(CCC3)C(=O)N(C)[C@@H](C3CCCC3)C(=O)N(C)[C@H](C(=O)N(C)C)CC(=O)N(C)[C@@H](CC(C)C)C(=O)N[C@@H]([C@@H](C)CC)C(=O)N(C)CC(=O)N(C)[C@H]3C/C=C\CCN(C3=O)[C@@H](Cc3ccc(C)cc3)C(=O)N(C)CC(=O)N[C@@H](CCc3cc(F)c(C(F)(F)F)c(F)c3)C(=O)N2C1 [PP2220] |  |  |  | 32.1 | 0.14 | A (a compound having 10 or more and less than 20 is denoted as A) | A (a compound having 10 or more and less than 20 is denoted as A) |  |  | 
CCO[C@@H]1C[C@H]2C(=O)NC3(CC(C)(C)C3)C(=O)N(C)[C@@H](C3CCCC3)C(=O)N(C)[C@H](C(=O)N(C)CC)CC(=O)N(C)[C@@H]([C@@H](C)OC)C(=O)N[C@@H]([C@@H](C)CC)C(=O)N(C)CC(=O)N(C)[C@H]3C/C=C\CCN(C3=O)[C@@H](Cc3ccc(C)cc3)C(=O)N(C)CC(=O)N[C@@H](CCc3cc(F)c(C(F)(F)F)c(F)c3)C(=O)N2C1 [PP3178] | 0.092 | A (a compound having 10 or more and less than 20 is denoted as A) | A (a compound having 10 or more and less than 20 is denoted as A) | 11.6 |  |  |  |  |  | 
